Data taken from the supplement of paper PMC10307832.

Key:
Assay in all cases: relative viability (nuclei count vs DMSO), 5 days (fraction); higher = more cells survive
IMD-0354 + OSI-027 = compound: O=C(Nc1cc(C(F)(F)F)cc(C(F)(F)F)c1)c1cc(Cl)ccc1O [IMD-0354] + COc1cccc2cc(-c3nc([C@H]4CC[C@H](C(=O)O)CC4)n4ncnc(N)c34)[nH]c12 [OSI-027] (partner 0.5 µM)
Summary of the method: (§1)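 Medians of duplicate plates are given as relative viability. That measure is the nuclei count in treated wells divided by the count in vehicle wells. Counts were taken on 4× images of lung cancer cell lines in 1536-well plates, 5 days after pin-tool dosing the day after seeding with one drug alone or a fixed anchor-drug dose plus five library-drug doses (not always all listed) in √10 steps.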

IMD-0354 + Foretinib = compound: O=C(Nc1cc(C(F)(F)F)cc(C(F)(F)F)c1)c1cc(Cl)ccc1O [IMD-0354] + COc1cc2c(Oc3ccc(NC(=O)C4(C(=O)Nc5ccc(F)cc5)CC4)cc3F)ccnc2cc1OCCCN1CCOCC1 [Foretinib] (partner 0.25 µM)
Summary of the method: as §1

CX-5461 + Linsitinib = compound: Cc1cnc(CNC(=O)c2c(=O)c3ccc(N4CCCN(C)CC4)nc3n3c2sc2ccccc23)cn1 [CX-5461] + C[C@]1(O)C[C@@H](c2nc(-c3ccc4ccc(-c5ccccc5)nc4c3)c3c(N)nccn32)C1 [Linsitinib] (partner 1 µM)
Summary of the method: as §1

IMD-0354 + Bortezomib = compound: O=C(Nc1cc(C(F)(F)F)cc(C(F)(F)F)c1)c1cc(Cl)ccc1O [IMD-0354] + CC(C)C[C@H](NC(=O)[C@H](Cc1ccccc1)NC(=O)c1cnccn1)B(O)O [Bortezomib] (partner 0.002 µM)
Summary of the method: as §1

Cell Line: UMC-11
- relative viability (IMD-0354 + OSI-027; first compound 0.04 µM): 0.57
- relative viability (IMD-0354 + OSI-027; first compound 0.1265 µM): 0.469
- relative viability (IMD-0354 + OSI-027; first compound 0.4 µM): 0.3
- relative viability (IMD-0354 + OSI-027; first compound 1.265 µM): 0.215
- relative viability (IMD-0354 + OSI-027; first compound 4 µM): 0.205
- relative viability (IMD-0354 + Foretinib; first compound 0.04 µM): 1.07
- relative viability (IMD-0354 + Foretinib; first compound 0.1265 µM): 1.03
- relative viability (IMD-0354 + Foretinib; first compound 0.4 µM): 0.431
- relative viability (IMD-0354 + Foretinib; first compound 1.265 µM): 0.235
- relative viability (IMD-0354 + Foretinib; first compound 4 µM): 0.235
- relative viability (CX-5461 + Linsitinib; first compound 0.01 µM): 0.907
- relative viability (CX-5461 + Linsitinib; first compound 0.03162 µM): 1.07
- relative viability (CX-5461 + Linsitinib; first compound 0.1 µM): 1.02
- relative viability (CX-5461 + Linsitinib; first compound 0.3162 µM): 0.92
- relative viability (CX-5461 + Linsitinib; first compound 1 µM): 0.807
- relative viability (IMD-0354 + Bortezomib; first compound 0.04 µM): 1.13
- relative viability (IMD-0354 + Bortezomib; first compound 0.1265 µM): 0.796
- relative viability (IMD-0354 + Bortezomib; first compound 0.4 µM): 0.465
- relative viability (IMD-0354 + Bortezomib; first compound 1.265 µM): 0.237
- relative viability (IMD-0354 + Bortezomib; first compound 4 µM): 0.212
